Data: PubChem BioAssay (NCI)
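Growth conditions: 96-well plates. Treatment: test compound, 48 hours, 5 concentrations. Analysis: linear interpolation between bracketing concentrations; unreached endpoints set to highest concentration. GI50 is the concentration that inhibits growth by half. TGI marks complete inhibition of growth.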

Experiments:
Assay in all cases: growth of human tumour cells (NCI), 48 h
ACHN renal = tested on: ACHN renal
DMS 114 small cell lung = tested on: DMS 114 small cell lung
DMS 273 small cell lung = tested on: DMS 273 small cell lung
K-562 leukemia = tested on: K-562 leukemia
M19-MEL melanoma = tested on: M19-MEL melanoma
MOLT-4 leukemia = tested on: MOLT-4 leukemia
SK-OV-3 ovarian = tested on: SK-OV-3 ovarian
SN12C renal = tested on: SN12C renal
UACC-257 melanoma = tested on: UACC-257 melanoma
PC-3 prostate = tested on: PC-3 prostate
T-47D breast = tested on: T-47D breast

Structure (SMILES)	TGI (ACHN renal)	TGI (DMS 114 small cell lung)	TGI (DMS 273 small cell lung)	TGI (K-562 leukemia)	TGI (M19-MEL melanoma)	TGI (MOLT-4 leukemia)	TGI (SK-OV-3 ovarian)	TGI (SN12C renal)	TGI (UACC-257 melanoma)	GI50 (ACHN renal)	GI50 (K-562 leukemia)	GI50 (MOLT-4 leukemia)	GI50 (PC-3 prostate)	TGI (PC-3 prostate)	GI50 (SK-OV-3 ovarian)	GI50 (SN12C renal)	GI50 (T-47D breast)	TGI (T-47D breast)	GI50 (UACC-257 melanoma)
Cc1ccc(-c2nnc(-c3nn(-c4ccccc4)c4nc5ccccc5nc34)o2)cc1	35.2 µM	51.1 µM	65.1 µM	61.9 µM	> 100 µM	> 100 µM	24.4 µM	> 100 µM	> 100 µM	–	–	–	–	–	–	–	–	–	–
Cc1cccc(C)c1NC(=O)/C(=N/NC(N)=S)C(C)C(=O)c1ccc(Cl)cc1 (stereo unspecified)	> 100 µM	> 100 µM	> 100 µM	> 100 µM	> 100 µM	> 100 µM	> 100 µM	> 100 µM	> 100 µM	–	–	–	–	–	–	–	–	–	–
CS(=O)(=O)c1ccc(-c2cc(-c3ccc(S(C)(=O)=O)cc3)[n+](-c3cc(-c4ccc(S(C)(=O)=O)cc4)c([O-])c(-c4ccc(S(C)(=O)=O)cc4)c3)c(-c3ccc(S(C)(=O)=O)cc3)c2)cc1	> 100 µM	> 100 µM	> 100 µM	> 100 µM	> 100 µM	> 100 µM	–	> 100 µM	> 100 µM	–	–	–	–	–	–	–	–	–	–
O=C1OC(Cc2ccccc2)(N2CCCC2=O)C1c1ccccc1 (stereo unspecified)	> 100 µM	81 µM	–	> 100 µM	> 100 µM	> 100 µM	> 100 µM	> 100 µM	> 100 µM	–	–	–	–	–	–	–	–	–	–
CC/C=C\C/C=C\C/C=C\CCCCCCCC(=O)OCC(O)CO (stereo unspecified)	> 72.5 µM	> 71 µM	> 100 µM	49 µM	–	> 63.5 µM	> 100 µM	> 100 µM	> 100 µM	–	–	–	–	–	–	–	–	–	–
O=C1CC(c2c[nH]c3ccccc23)C(=O)N1 (stereo unspecified)	> 100 µM	–	> 100 µM	> 100 µM	> 100 µM	> 100 µM	> 100 µM	–	> 100 µM	–	–	–	–	–	–	–	–	–	–
O=c1nc(NC2CCCCO2)ccn1CCO (stereo unspecified)	> 100 µM	> 100 µM	> 100 µM	> 100 µM	> 100 µM	–	> 100 µM	> 100 µM	> 100 µM	–	–	–	–	–	–	–	–	–	–
CN[C@@H](C)C(=O)N[C@H](C(=O)N1CCC[C@H]1C(=O)Nc1sc(-c2ncco2)nc1-c1ccccc1)C1CCCCC1	> 54.9 µM	–	–	63.6 µM	–	88.1 µM	0.299 µM	> 71.9 µM	34 µM	19.3 µM	24.7 µM	29.2 µM	42 µM	> 100 µM	0.0336 µM	38.9 µM	24.3 µM	82.4 µM	17.5 µM
O=C(/C=C/c1cc2ccccc2[nH]c1=O)/C=C/c1cc2ccccc2[nH]c1=O	> 95.3 µM	–	–	> 100 µM	–	> 100 µM	> 100 µM	> 86.6 µM	19.6 µM	11.2 µM	> 23.1 µM	24 µM	> 21.5 µM	> 81.1 µM	31.4 µM	12.6 µM	11.6 µM	> 100 µM	8.32 µM
OCc1ccc(N2CCCC2c2ccccc2)cc1Cl (stereo unspecified)	26.9 µM	–	–	10.6 µM	–	24.9 µM	13 µM	21.7 µM	2.11 µM	11.7 µM	2.33 µM	4.75 µM	8.41 µM	29 µM	2.89 µM	8.22 µM	0.358 µM	4.71 µM	0.544 µM
OCC1OC(n2cnc3c(N/N=C\c4ccccn4)ncnc32)C(O)C1O (stereo unspecified)	1.78 µM	–	–	> 100 µM	–	> 100 µM	2.97 µM	7.48 µM	8.68 µM	0.2 µM	0.368 µM	0.0532 µM	0.361 µM	> 33.6 µM	0.239 µM	0.107 µM	0.282 µM	21 µM	1.24 µM
O=C1OCC2=C1C(c1ccccc1)c1cc3c(cc1N2)OCO3 (stereo unspecified)	36.4 µM	–	–	32.7 µM	–	–	1.39 µM	> 65 µM	> 100 µM	0.0946 µM	–	0.036 µM	0.0404 µM	> 100 µM	0.0308 µM	0.0557 µM	5.14 µM	> 100 µM	4.58 µM
COc1ccc(-c2[nH]c3ccccc3c2-c2ccc(OC)cc2)cc1	28.3 µM	–	–	10.4 µM	–	9.62 µM	26.6 µM	23.5 µM	23.2 µM	11.9 µM	2.89 µM	2.68 µM	4.07 µM	25.3 µM	5.85 µM	6.73 µM	3.28 µM	20.6 µM	7.22 µM
COC1C=COC2(C)Oc3c(C)c(O)c4c(c3C2=O)/C(=N/C2CCC(O)OC2C)C=C(NC(=O)/C(C)=C\C(=O)C2CC2C(O)C(C)C(O)C(C)C(OC(C)=O)C1C)C4=O (stereo unspecified)	6.68 µM	–	–	6.3 µM	–	8.05 µM	20.1 µM	3.24 µM	5.98 µM	–	–	–	–	6.56 µM	–	–	–	8.61 µM	–
O=C1NC(=O)C2C(=O)NC(=O)C1C2c1c(Cl)cccc1Cl (stereo unspecified)	> 100 µM	> 53.5 µM	> 57.5 µM	> 71.7 µM	–	> 100 µM	> 100 µM	> 100 µM	> 100 µM	–	–	–	–	–	–	–	–	–	–
O=C1OC(=O)C(=C\c2ccc3c(c2)OCO3)/C1=C/c1ccc2c(c1)OCO2	> 100 µM	–	–	> 100 µM	–	> 100 µM	> 100 µM	> 100 µM	> 100 µM	–	–	–	–	> 100 µM	–	–	–	> 100 µM	–
O=C(NN1C(=O)CSC12CCCCC2)c1[nH]c2ccc(Br)cc2c1-c1ccccc1	58.1 µM	–	–	56.6 µM	–	46.9 µM	> 100 µM	34.9 µM	72.5 µM	22.6 µM	13.4 µM	8.79 µM	16.5 µM	32.2 µM	46.3 µM	17.6 µM	27.9 µM	> 100 µM	26.4 µM
COc1ccc(-c2cc(Cc3cccs3)c(=O)[nH]n2)cc1	> 100 µM	> 100 µM	> 100 µM	–	> 100 µM	–	> 100 µM	> 100 µM	> 100 µM	–	–	–	–	–	–	–	–	–	–
N#CC(=C1C=CC(=NO)C=C1)c1ccc(Cl)cc1	24.9 µM	31.5 µM	> 100 µM	–	46.9 µM	39.5 µM	48.9 µM	58.7 µM	–	–	–	–	–	–	–	–	–	–	–
COc1cc2nc(N3CCCC3)nc(NCCc3ccccc3)c2cc1OC	3.04 µM	–	–	> 100 µM	–	7.69 µM	3.56 µM	3.79 µM	3.85 µM	1.67 µM	1.81 µM	2.43 µM	1.68 µM	3.91 µM	1.93 µM	1.87 µM	1.94 µM	4.41 µM	1.89 µM
